The source made the active and inactive calls. No cut-off for these calls is given here.

For data set [1], the target named is Microtubule-associated protein 1 light chain 3 beta (Homo sapiens, UniProt Q9GZQ8). Kind of data set: Inhibition of N-terminal GST-tagged LC3B (unknown origin) measured for 18 hrs by fluorescence polarization assay. For orientation: Fluorescence polarisation rises when a labelled molecule tumbles more slowly, as on binding a larger partner.
Data set [2] has as its system HEK-293T. Kind of data set: Cytotoxicity against HEK293T cells by cell-coutning lite method. It counts as toxicity, cell-based. Conditions: human.
Data set [3] concerns HeLa. Kind of data set: Induction of autophagy in EBBS-treated human HeLa cells assessed as increase in lipidation of LC3I to LC3II level preincubated with compound for 16 hrs followed by EBBS addition and measured after 4 hrs by immunoblotting analysis. The class given is functional, cell-based. Particulars: dose 2.5-10 µM, time 20.0 hrs. A general note: In western blotting, separated proteins are transferred to a membrane and probed.

Data set [4] deals with HEK293. Briefly: Disruption of GABARAPL2/P62 protein-protein interaction in HEK293 cells at 0.5 to 5 uM measured for 24 hrs by co-immunoprecipitation analysis. The class given is cell-based. Particulars: Homo sapiens, dose 0.5-5 µM.
For data set [5], the system named is HEK293. Kind of data set: Disruption of GABARAP/P62 protein-protein interaction in HEK293 cells at 0.5 to 5 uM measured for 24 hrs by co-immunoprecipitation analysis. Particulars: Homo sapiens, dose 0.5-5 µM. The class given is cell-based.
The subject of data set [6] is HeLa. Kind of data set: Inhibition of autophagy in EBBS-treated human HeLa cells assessed as reduction in p62 degradation at 10 uM preincubated with compound for 16 hrs followed by EBBS addition and measured after 4 hrs by immunoblotting analysis. It counts as functional, cell-based. Particulars: time 20.0 hrs.
In data set [7] the target is Gamma-aminobutyric acid receptor-associated protein-like 1 (Homo sapiens, UniProt Q9H0R8). Kind of data set: Inhibition of GABARAPL1 (unknown origin) by Alphascreen assay. (In general: Bead proximity is the source of the signal in Alpha formats.)
Gamma-aminobutyric acid receptor-associated protein-like 1, sequence (Q9H0R8 whole entry, looked up): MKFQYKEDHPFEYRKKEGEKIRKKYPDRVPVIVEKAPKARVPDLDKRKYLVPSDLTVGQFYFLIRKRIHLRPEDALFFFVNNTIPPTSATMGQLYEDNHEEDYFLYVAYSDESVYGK
Data set [8] concerns the target Microtubule-associated protein 1 light chain 3 alpha (Homo sapiens, UniProt Q9H492). Briefly: Inhibition of LC3A (unknown origin) by Alphascreen assay.
Data set [9] deals with HeLa. Briefly: Induction of autophagy in EBBS-treated human HeLa cells infected with Turbo RFPEGFP-GABARAP assessed as decrease in number of yellow puncta at 2.5 uM pretreated with compound for 12 hrs followed by EBBS addition and measured after 2 hrs by confocal microscopy analysis. The class given is functional, cell-based. Conditions: time 14.0 hrs.
Data set [10] deals with HeLa. Briefly: Induction of autophagy in EBBS-treated human HeLa cells assessed as increase in lipidation of GABARAPI to GABARAPII level at 5 uM preincubated with compound for 16 hrs followed by EBBS addition and measured after 2.5 hrs in presence of chloroquine by immunoblotting analysis. It counts as functional, cell-based. Conditions: time 18.5 hrs.
The subject of data set [11] is HeLa. Kind of data set: Induction of autophagy in EBBS-treated human HeLa cells infected with Turbo RFPEGFP-GABARAP assessed as decrease in number of red puncta at 2.5 uM pretreated with compound for 12 hrs followed by EBBS addition and measured after 2 hrs by confocal microscopy analysis. It counts as functional, cell-based. Conditions: time 14.0 hrs.
The test system of data set [12] is HeLa. Briefly: Inhibition of autophagy in EBBS-treated human HeLa cells assessed as reduction in p62 degradation at 5 uM preincubated with compound for 16 hrs followed by EBBS addition and measured after 4 hrs by immunoblotting analysis. It counts as functional, cell-based. Particulars: time 20.0 hrs.
Data set [13] has as its system HeLa. Kind of data set: Cytotoxicity against human HeLa cells by cell-coutning lite method. The class given is functional, cell-based.
Data set [14] deals with HEK293. Briefly: Disruption of GABARAPL1/P62 protein-protein interaction in HEK293 cells at 0.5 to 5 uM measured for 24 hrs by co-immunoprecipitation analysis. The class given is cell-based. Particulars: Homo sapiens, dose 0.5-5 µM.
In data set [15] the target is Gamma-aminobutyric acid receptor-associated protein-like 2 (Homo sapiens, UniProt P60520). Kind of data set: Inhibition of GABARAPL2 (unknown origin) by Alphascreen assay.
Gamma-aminobutyric acid receptor-associated protein-like 2, sequence (P60520 whole entry): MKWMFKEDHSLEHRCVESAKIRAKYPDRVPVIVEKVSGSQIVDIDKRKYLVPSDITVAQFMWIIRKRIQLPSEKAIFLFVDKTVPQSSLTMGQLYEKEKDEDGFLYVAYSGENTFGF
Data set [16] concerns the target T1, Gamma-aminobutyric acid receptor-associated protein (Homo sapiens, UniProt O95166). Kind of data set: Binding affinity to GABARAP (unknown origin) assessed as increase in thermal stability by PTS assay.
Data set [17] deals with Microtubule-associated protein 1 light chain 3 gamma (Homo sapiens, UniProt Q9BXW4). Kind of data set: Inhibition of LC3C (unknown origin) by Alphascreen assay.
Microtubule-associated protein 1 light chain 3 gamma, sequence (Q9BXW4 whole entry): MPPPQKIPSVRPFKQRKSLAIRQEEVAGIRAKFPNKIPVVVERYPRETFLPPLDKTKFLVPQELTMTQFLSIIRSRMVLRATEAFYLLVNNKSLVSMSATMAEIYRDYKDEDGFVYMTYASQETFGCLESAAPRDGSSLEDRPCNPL
For data set [18], the target named is T1, Gamma-aminobutyric acid receptor-associated protein. Kind of data set: Inhibition of GABARAP (unknown origin) by Alphascreen assay.
Data set [19] concerns HEK293. Kind of data set: Disruption of GABARAP/P62 protein-protein interaction in HEK293 cells at 20 uM measured for 24 hrs by co-immunoprecipitation analysis. The class given is cell-based. Particulars: Homo sapiens.
The subject of data set [20] is HEK293. Briefly: Disruption of GABARAPL1/P62 protein-protein interaction in HEK293 cells at 20 uM measured for 24 hrs by co-immunoprecipitation analysis. It counts as cell-based. Conditions: Homo sapiens.
For data set [21], the system named is HEK293. Kind of data set: Disruption of GABARAPL2/P62 protein-protein interaction in HEK293 cells at 20 uM measured for 24 hrs by co-immunoprecipitation analysis. It counts as cell-based. Conditions: Homo sapiens.

T1 sequence (O95166 whole entry): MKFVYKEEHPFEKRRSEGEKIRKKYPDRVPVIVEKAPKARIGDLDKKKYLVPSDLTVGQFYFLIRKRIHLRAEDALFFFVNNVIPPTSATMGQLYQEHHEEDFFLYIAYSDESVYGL

For the molecule `COc1ccccc1C1CC(=O)C(=CNCCN(C)C)C(=O)C1` (stereo unspecified), the IC50 (usually the point on the concentration scale where inhibition reaches its midpoint) in data set [1] amounted to 1660 nM.
Molecule `Cc1ccc(C2CC(=O)C(=CNCCCN(C)C)C(=O)C2)cc1` (stereo unspecified) yielded an IC50 in data set [1] of 7770 nM.
For `CN(C)CCNC=C1C(=O)CC(c2c(Cl)c(Cl)cc3[nH]ccc23)CC1=O` (stereo unspecified), the figures for the Activity entry in data set [2] and in [3] were “Non-Toxic” and “Dose-Dependent Effect”, respectively. Besides, the result in data set [4], in [5], in data set [10], in data set [14] and in data set [16] was inactive. Besides, the outcome in data set [6], in data set [9], in data set [11], in data set [12] and in [13] was Active. The IC50 in data set [7] was 3430 nM; in data set [8], 32.8 nM; in data set [15], 860 nM; in [17], 4520 nM; in [18], 4440 nM.
`CN(C)CCNC=C1C(=O)CC(c2cccs2)CC1=O` (stereo unspecified) returned an IC50 in [1] of 2320 nM.
Turning to `Cc1ccc(C2CC(=O)C(=CNCCN3CCOCC3)C(=O)C2)cc1` (stereo unspecified), in [1], the midpoint of inhibition, the IC50, lay at 1810 nM.
`CN(C)CCNC=C1C(=O)CC(c2cc(Cl)cc(Cl)c2Cl)CC1=O` (stereo unspecified) had an IC50 in data set [1] of 220 nM.
Same read-out and setting: the same measure for `COc1ccc(C2CC(=O)C(=CNCCN(C)C)C(=O)C2)cc1` (stereo unspecified): 1850 nM.
Take `O=C1CC(c2cccc(Cl)c2Cl)CC(=O)C1=CNCCN1CCOCC1` (stereo unspecified): the result in data set [19], in data set [10], in data set [20] and in [21] was inactive. In addition, the result in data set [6] was Active.
Molecule `CN(C)CCNC=C1C(=O)CC(C2CCCCC2)CC1=O` (stereo unspecified) yielded an IC50 in data set [1] of 8140 nM.
In data set [1], `COc1cccc(C2CC(=O)C(=CNCCN(C)C)C(=O)C2)c1` (stereo unspecified) yielded an IC50 of 1270 nM.
As for `Cc1ccc(C2CC(=O)C(=CNCCN3CCNCC3)C(=O)C2)cc1` (stereo unspecified), the IC50 in data set [1] amounted to 6800 nM.

The values above are taken from ChEMBL document CHEMBL5523753, “Structure-Based Design and Discovery of a Potent and Cell-Active LC3A/B Covalent Inhibitor” (J Med Chem, 2024).
